Experimental data reported in patent publication US10138227B2, “Heteroaryl substituted pyridines and methods of use” (AbbVie S.à.r.l., priority 2016, dated 2018).

Target: T1, CFTR ΔF508 mutant (Homo sapiens, UniProt P13569, DEL508-508)
T1 construct: expressed in transfected cells; host or cells: CFBE41o- cells transduced with adenoviral vectors
Test: YFP-halide influx assay for the CFTR-ΔF508 mutation
Assay type: cell-based
Settings: CFBE41o- cells expressing CFTR ΔF508 and YFP reporter, forskolin 10.67 μM; for EC50: (1-F/F0) vs concentration
Text: The YFP halide influx assay measured the functionality of the cystic fibrosis Transmembrane Conductance regulator (CFTR) channels in the cystic fibrosis bronchial epithelium cell line CFBE41o-. The assay was used to evaluate the capacity of compounds to increase the open probability of existing CFTR channels in the membrane. It makes use of the observation that the yellow fluorescent protein (YFP) variant YFP H148Q, I152L, F47L has its fluorescence substantially quenched by halide ions like Cl^− and I^− (Galietta, L. J. V., Haggie, P. M., Verkman, A. S., 2001. Green fluorescent protein-based halide indicators with improved chloride and iodide affinities. FEBS Lett. 499, 220-224. doi:10.1016/S0014-5793(01)02561-3; Nagai, T., Ibata, K., Park, E. S., Kubota, M., Mikoshiba, K., Miyawaki, A., 2002. A variant of yellow fluorescent protein with fast and efficient maturation for cell-biological applications. Nat. Biotechnol. 20, 87-90. doi:10.1038/nbt0102-87).
For this purpose, CFBE410-cells were seeded in 384 well plates (3000 CFBE cells/well). One day after seeding, the CFBE cells were transduced with adenoviral vectors that direct the expression of the CFTR ΔF508 mutant and of the YFP reporter. Cells were incubated at 27° C., 5% CO2 for 24 hours so as to allow for the proper folding and migration to the membrane of the CFTR channel or treated with a CFTR modulator during 24 hours at 37° C.
The I-induced quenching of fluorescence was recorded on an immediately after injection of iodide for 2 minutes on an FDSS/μCell (Hamamatsu). The capacity of a compound to increase the channel opening was directly correlated with the decrease in fluorescence, and was expressed as (1-(fluorescence after 36 seconds (F)/fluorescence before injection (F0))) and an EC50 was derived from a (1-F/F0) vs compound concentration plot.

T1 sequence (P13569 with tags, fused parts or gaps DEL508-508): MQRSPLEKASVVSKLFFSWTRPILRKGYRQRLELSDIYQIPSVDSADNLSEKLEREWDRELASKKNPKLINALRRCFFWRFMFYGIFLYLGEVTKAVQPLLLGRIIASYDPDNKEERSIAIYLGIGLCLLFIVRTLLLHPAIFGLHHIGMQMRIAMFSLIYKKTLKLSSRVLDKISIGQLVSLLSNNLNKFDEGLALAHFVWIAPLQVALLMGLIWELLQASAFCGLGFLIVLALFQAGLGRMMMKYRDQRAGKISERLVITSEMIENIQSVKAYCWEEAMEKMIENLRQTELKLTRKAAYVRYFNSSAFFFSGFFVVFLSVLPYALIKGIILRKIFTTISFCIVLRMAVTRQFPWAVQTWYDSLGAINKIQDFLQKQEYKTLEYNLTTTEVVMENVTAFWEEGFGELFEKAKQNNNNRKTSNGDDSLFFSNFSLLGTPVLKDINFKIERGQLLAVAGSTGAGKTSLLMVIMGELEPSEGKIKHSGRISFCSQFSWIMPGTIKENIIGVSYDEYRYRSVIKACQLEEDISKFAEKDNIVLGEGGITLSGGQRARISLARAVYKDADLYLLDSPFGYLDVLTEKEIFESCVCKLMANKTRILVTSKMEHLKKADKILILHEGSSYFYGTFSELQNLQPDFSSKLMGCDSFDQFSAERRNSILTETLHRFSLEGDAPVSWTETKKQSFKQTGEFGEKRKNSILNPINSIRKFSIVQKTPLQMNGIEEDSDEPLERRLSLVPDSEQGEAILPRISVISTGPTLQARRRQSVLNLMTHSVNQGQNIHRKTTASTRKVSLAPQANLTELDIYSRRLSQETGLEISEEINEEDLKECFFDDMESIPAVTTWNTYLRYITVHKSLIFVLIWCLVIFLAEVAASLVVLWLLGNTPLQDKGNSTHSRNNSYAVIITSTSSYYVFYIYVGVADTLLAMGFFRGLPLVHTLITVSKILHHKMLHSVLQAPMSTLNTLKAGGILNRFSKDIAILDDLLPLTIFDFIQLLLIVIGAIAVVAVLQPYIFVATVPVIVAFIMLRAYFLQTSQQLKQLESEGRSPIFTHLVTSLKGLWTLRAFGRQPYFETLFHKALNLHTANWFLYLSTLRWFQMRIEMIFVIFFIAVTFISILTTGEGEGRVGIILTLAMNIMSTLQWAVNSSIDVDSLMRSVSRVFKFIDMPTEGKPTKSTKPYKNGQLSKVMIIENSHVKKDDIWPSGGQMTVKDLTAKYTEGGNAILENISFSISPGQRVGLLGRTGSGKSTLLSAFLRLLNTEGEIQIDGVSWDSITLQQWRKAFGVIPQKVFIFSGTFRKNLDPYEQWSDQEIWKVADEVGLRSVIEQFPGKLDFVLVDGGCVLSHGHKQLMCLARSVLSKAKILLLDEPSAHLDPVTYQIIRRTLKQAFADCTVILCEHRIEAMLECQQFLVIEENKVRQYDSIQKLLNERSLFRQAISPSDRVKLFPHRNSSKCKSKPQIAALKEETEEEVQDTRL

% Activation | EC50 | SMILES
105.02% | 36.6 nM | Nc1cc(S(=O)(=O)c2ccc(OC(F)(F)F)cc2)cnc1-c1nnc(C[C@H]2CCCO2)s1 [Compound 32, 2-(5-{[(2R)-oxolan-2-yl]methyl}-1,3,4-thiadiazol-2-yl)-5-[4-(trifluoromethoxy)benzene-1-sulfonyl]pyridin-3-amine]
103.5% | 39.8 nM | COCCOCc1nnc(-c2ncc(S(=O)(=O)c3ccc(OC(F)(F)F)cc3)cc2N)o1 [Compound 33, 2-{5-[(2-methoxyethoxy)methyl]-1,3,4-oxadiazol-2-yl}-5-[4-(trifluoromethoxy)benzene-1-sulfonyl]pyridin-3-amine]
102.19% | 21.3 nM | CO[C@H](C)c1nnc(-c2ncc(S(=O)(=O)c3ccc(OC(F)(F)F)cc3)cc2N)o1 [Compound 34, 2-{5-[(1R)-1-methoxyethyl]-1,3,4-oxadiazol-2-yl}-5-[4-(trifluoromethoxy)benzene-1-sulfonyl]pyridin-3-amine]
98.52% | 20.8 nM | CO[C@@H](C)c1nnc(-c2ncc(S(=O)(=O)c3ccc(OC(F)(F)F)cc3)cc2N)o1 [Compound 35, 2-{5-[(1S)-1-methoxyethyl]-1,3,4-oxadiazol-2-yl}-5-[4-(trifluoromethoxy)benzene-1-sulfonyl]pyridin-3-amine]
102.93% | 12.3 nM | CCOCc1nnc(-c2ncc(S(=O)(=O)c3ccc(OC(F)(F)F)cc3)cc2N)o1 [Compound 36, 2-[5-(ethoxymethyl)-1,3,4-oxadiazol-2-yl]-5-[4-(trifluoromethoxy)benzene-1-sulfonyl]pyridin-3-amine]
119.85% | 28.7 nM | COCc1nnc(-c2ncc(S(=O)(=O)c3ccc(OC(F)(F)F)cc3)cc2N)o1 [Compound 37, 2-[5-(methoxymethyl)-1,3,4-oxadiazol-2-yl]-5-[4-(trifluoromethoxy)benzene-1-sulfonyl]pyridin-3-amine]
109.05% | 224 nM | Nc1cc(S(=O)(=O)c2ccc(OC(F)(F)F)cc2)cnc1-c1nnc(COc2cccnc2)o1 [Compound 38, 2-(5-{[(pyridin-3-yl)oxy]methyl}-1,3,4-oxadiazol-2-yl)-5-[4-(trifluoromethoxy)benzene-1-sulfonyl]pyridin-3-amine]
119.45% | 9.88 nM | Nc1cc(S(=O)(=O)c2ccc(OC(F)(F)F)cc2)cnc1-c1nnc(COC(F)F)o1 [Compound 39, 2-{5-[(difluoromethoxy)methyl]-1,3,4-oxadiazol-2-yl}-5-[4-(trifluoromethoxy)benzene-1-sulfonyl]pyridin-3-amine]
106.65% | 36.8 nM | Nc1cc(S(=O)(=O)c2ccc(OC(F)(F)F)cc2)cnc1-c1nnc(C[C@@H]2CCCO2)o1 [Compound 40, 2-(5-{[(2S)-oxolan-2-yl]methyl}-1,3,4-oxadiazol-2-yl)-5-[4-(trifluoromethoxy)benzene-1-sulfonyl]pyridin-3-amine]
96.97% | 41.3 nM | Nc1cc(S(=O)(=O)c2ccc(OC(F)(F)F)cc2)cnc1-c1nnc(C[C@H]2CCCO2)o1 [Compound 41, 2-(5-{[(2R)-oxolan-2-yl]methyl}-1,3,4-oxadiazol-2-yl)-5-[4-(trifluoromethoxy)benzene-1-sulfonyl]pyridin-3-amine]
109.65% | 1.57 nM | CC(O)c1nnc(-c2ncc(S(=O)(=O)c3ccc(OC(F)(F)F)cc3)cc2N)o1 (stereo not drawn) [Compound 42, 1-(5-{3-amino-5-[4-(trifluoromethoxy)benzene-1-sulfonyl]pyridin-2-yl}-1,3,4-oxadiazol-2-yl)ethan-1-ol]
110.8% | < 0.77 nM | CC(C)(O)c1nnc(-c2ncc(S(=O)(=O)c3ccc(OC(F)(F)F)cc3)cc2N)o1 [Compound 43, 2-(5-{3-amino-5-[4-(trifluoromethoxy)benzene-1-sulfonyl]pyridin-2-yl}-1,3,4-oxadiazol-2-yl)propan-2-ol]
105.25% | 1.63 nM | Nc1cc(S(=O)(=O)c2ccc(OC(F)(F)F)cc2)cnc1-c1nnc([C@@H](O)Cc2ccccc2)o1 [Compound 44, (1S)-1-(5-{3-amino-5-[4-(trifluoromethoxy)benzene-1-sulfonyl]pyridin-2-yl}-1,3,4-oxadiazol-2-yl)-2-phenyl ethan-1-ol]
109.25% | 1.13 nM | Nc1cc(S(=O)(=O)c2ccc(OC(F)(F)F)cc2)cnc1-c1nnc([C@@H](O)c2ccccc2)o1 [Compound 45, (S)-(5-{3-amino-5-[4-(trifluoromethoxy)benzene-1-sulfonyl]pyridin-2-yl}-1,3,4-oxadiazol-2-yl)(phenyl)methanol]
82.3% | > 1660 nM | COC(C)(C)c1noc(-c2ncc(S(=O)(=O)c3ccc(OC(F)(F)F)cc3)cc2N)n1 [Compound 46, 2-[3-(2-methoxypropan-2-yl)-1,2,4-oxadiazol-5-yl]-5-[4-(trifluoromethoxy)benzene-1-sulfonyl]pyridin-3-amine]
59.4% | > 1660 nM | COC(C)c1noc(-c2ncc(S(=O)(=O)c3ccc(OC(F)(F)F)cc3)cc2N)n1 (stereo not drawn) [Compound 47, 2-[3-(1-methoxyethyl)-1,2,4-oxadiazol-5-yl]-5-[4-(trifluoromethoxy)benzene-1-sulfonyl]pyridin-3-amine]
6.28% | > 4990 nM | Nc1cc(S(=O)(=O)c2ccc(OC(F)(F)F)cc2)cnc1-c1nc(C2CCOCC2)no1 [Compound 48, 2-[3-(oxan-4-yl)-1,2,4-oxadiazol-5-yl]-5-[4-(trifluoromethoxy)benzene-1-sulfonyl]pyridin-3-amine]
29.2% | > 3320 nM | Nc1cc(S(=O)(=O)c2ccc(OC(F)(F)F)cc2)cnc1-c1nc(COc2ccc(F)cc2)no1 [Compound 49, 2-{3-[(4-fluorophenoxy)methyl]-1,2,4-oxadiazol-5-yl}-5-[4-(trifluoromethoxy)benzene-1-sulfonyl]pyridin-3-amine]
45.59% | > 1660 nM | Nc1cc(S(=O)(=O)c2ccc(OC(F)(F)F)cc2)cnc1-c1nc(CC2CC2)no1 [Compound 50, 2-[3-(cyclopropylmethyl)-1,2,4-oxadiazol-5-yl]-5-[4-(trifluoromethoxy)benzene-1-sulfonyl]pyridin-3-amine]
23.23% | > 3320 nM | Nc1cc(S(=O)(=O)c2ccc(OC(F)(F)F)cc2)cnc1-c1nc(CC2CCCO2)no1 (stereo not drawn) [Compound 51, 2-{3-[(oxolan-2-yl)methyl]-1,2,4-oxadiazol-5-yl}-5-[4-(trifluoromethoxy)benzene-1-sulfonyl]pyridin-3-amine]
3.42% | > 4990 nM | Nc1cc(S(=O)(=O)c2ccc(OC(F)(F)F)cc2)cnc1-c1nc(C2CC2)no1 [Compound 52, 2-(3-cyclopropyl-1,2,4-oxadiazol-5-yl)-5-[4-(trifluoromethoxy)benzene-1-sulfonyl]pyridin-3-amine]
15.28% | > 4990 nM | Nc1cc(S(=O)(=O)c2ccc(OC(F)(F)F)cc2)cnc1-c1nc(C2CCOC2)no1 (stereo not drawn) [Compound 53, 2-[3-(oxolan-3-yl)-1,2,4-oxadiazol-5-yl]-5-[4-(trifluoromethoxy)benzene-1-sulfonyl]pyridin-3-amine]
12.02% | > 4990 nM | CC(C)(C)c1noc(-c2ncc(S(=O)(=O)c3ccc(OC(F)(F)F)cc3)cc2N)n1 [Compound 54, 2-(3-tert-butyl-1,2,4-oxadiazol-5-yl)-5-[4-(trifluoromethoxy)benzene-1-sulfonyl]pyridin-3-amine]
2.76% | > 4990 nM | COCCc1noc(-c2ncc(S(=O)(=O)c3ccc(OC(F)(F)F)cc3)cc2N)n1 [Compound 55, 2-[3-(2-methoxyethyl)-1,2,4-oxadiazol-5-yl]-5-[4-(trifluoromethoxy)benzene-1-sulfonyl]pyridin-3-amine]
93.64% | 2.41 nM | Nc1c(-c2nnc(CO)o2)ncc(S(=O)(=O)c2ccc(OC(F)(F)F)cc2)c1Cl [Compound 57, (5-{3-amino-4-chloro-5-[4-(trifluoromethoxy)benzene-1-sulfonyl]pyridin-2-yl}-1,3,4-oxadiazol-2-yl)methanol]
104.91% | 3.51 nM | Nc1cc(S(=O)(=O)c2cccc(OC(F)(F)F)c2)cnc1-c1nnc(CO)o1 [Compound 58, (5-{3-amino-5-[3-(trifluoromethoxy)benzene-1-sulfonyl]pyridin-2-yl}-1,3,4-oxadiazol-2-yl)methanol]
106.56% | 4.25 nM | Nc1cc(S(=O)(=O)c2ccccc2OC(F)(F)F)cnc1-c1nnc(CO)o1 [Compound 59, (5-{3-amino-5-[2-(trifluoromethoxy)benzene-1-sulfonyl]pyridin-2-yl}-1,3,4-oxadiazol-2-yl)methanol]
